# Values quoted from earlier work in US20030129616A1, “Use of a mutation in the gene for the beta3-subunit of human g-protein” (priority 2000, published 2003).
# System: bladder tumor cells
substance,measurement,value
pertussis toxin,migration of bladder tumor cells,greatly inhibited
